Data as given in patent publication US5474989A, “Drug composition” (priority 1988, dated 1995).

Columns and labels:
[1] = Dissolution rate of drug into water, solid dispersion with low molecular weight chitosan C-5 versus drug alone (Example 4); assay type: physicochemical; details: drug alone without additive; 10 to 30 mg in 60 ml, 57 rpm, water 37° C.
Description: Each 3 parts by weight of the chitosan products C-0 to C-5 was added to 1 part by weight of flurbiprofen (denoted sometimes hereinafter as FP) and the mixture kneaded with the addition of water in an amount of 2-fold of that of the chitosan product for 1 hour. The kneaded mixture was dried under a reduced pressure at room temperature for 48 hours. A fraction of the particles that passed through 100-mesh standard sieve was employed as the solid dispersion. For each of these solid dispersions, the dissolution rate of FP into water at 37° C. was observed by the procedure given below:
500 ml of water were charged in a dissolution rate measuring device (made by Toyama Sangyo Co., Ltd.) maintained at 37° C. and thereto was further added each of the above solid dispersions in an amount corresponding to 40 mg as FP and the mixture was agitated at 91 rpm. The agitated mixture was sampled each in an amount of 3 ml at a regular time interval with a pipette fitted with a cotton plug. Each sample was filtered through a 0.45 μm membrane filter and the FP concentration of the filtrate was determined after extraction with chloroform.
The rate of dissolution was determined for drug compositions having the low molecular weight chitosan C-5 obtained in Reference Example 1, by observing the concentration of the drug in the same manner as in Example 1 at a regular time interval except that the drug was charged in an amount within the range of from 10 to 30 mg in 60 ml of solution and the agitation was effected at 57 rpm. The ratio of the dissolved amount of drug to the total charged amount of the drug was calculated. Results are summarized in FIGS. 5(A)- 5(G) in a corresponding graph. The experimental results for flurbiprofen are given here again.
The average dissolution time calculated from the rate of dissolution for each drug is recited in Table 3. The calculation of the average dissolution time was made basing on the method given in "Chem. Pharm. Bull.", 30, 1088 (1982).

[2] = Solubility of drugs in aqueous solutions of low molecular weight chitosan C-5 (Example 3); details: aqueous solution of C-5, varying concentration, 25° C., 10 days
Description: Each 5 mg of vitamin E and vitamin K was accurately weighed (this amount is chosen so as to exceed above the solubility limits of these drugs) and placed in a test tube. […] Each of the solutions which reached dissolution equilibrium was sampled with a pippette fitted with a cotton plug. The sample was filtered through a 0.45 μm membrane filter and the concentration of vitamin E or vitamin K was determined by means of UV-determination after extraction with chloroform.

[3] = Wetting contact angle of water drops on tablet surface (Example 7); assay type: physicochemical; details: tablet 2 cm diameter, 50 μl water drop
Description: Examination was effected for the samples of the solid dispersions as obtained in Example 5 and for each drug alone without any additive. The wetting was evaluated by determining the wetting contact angle of water drops on the surface of a tablet having a diameter of 2 cm obtained using an IR tabletting machine with a drop of water of 50 μl.

[4] = chitosan in a form of a solution of acetic acid salt, versus polyvinylpyrrolidone; cited from earlier work

Row | Wetting Contact Angle, Drug alone [3] | SMILES | Average Dissolution Time, Drug alone [1] | dissolution characteristic curve type [2] | solubility of drug with increasing concentration of low molecular weight chitosan [2] | effect of chitosan on the dissolution rate of kitasamycin [4]
1 |  | C[C@H]1C[C@H]2[C@@H]3CCC4=CC(=O)C=C[C@]4(C)[C@@]3(F)[C@@H](O)C[C@]2(C)[C@@]1(O)C(=O)CO [Betamethasone, betamethasone] | 45.9 min | dissolution characteristic curve of Bs-type |  | 
2 |  | C[C@H]1O[C@@H](O[C@H]2[C@@H](O)C[C@H](O[C@H]3[C@@H](O)C[C@H](O[C@H]4CC[C@@]5(C)[C@H](CC[C@@H]6[C@@H]5C[C@@H](O)[C@]5(C)[C@@H](C7=CC(=O)OC7)CC[C@]65O)C4)O[C@@H]3C)O[C@@H]2C)C[C@H](O)[C@@H]1O [Digoxin, digoxin] | 40.9 min |  | an increase in the solubility of the drug was recognized | 
3 | 55 ° | CC(C(=O)O)c1ccc(-c2ccccc2)c(F)c1 (centres unmarked) [Flurbiprofen, flurbiprofen] | 46.1 min |  |  | 
4 |  | O=C1NC(=O)C(c2ccccc2)(c2ccccc2)N1 [Phenytoin, phenytoin] | 35.9 min |  | an increase in the solubility of the drug was recognized | 
5 |  | C[C@]12C=CC(=O)C=C1CC[C@@H]1[C@@H]2[C@@H](O)C[C@@]2(C)[C@H]1CC[C@]2(O)C(=O)CO [Prednisolone, prednisolone] | 18.7 min |  |  | 
6 | 50 ° | C[C@]12C=CC(=O)C=C1CC[C@H]1[C@@H]3C[C@@H](O)[C@](O)(C(=O)CO)[C@@]3(C)C[C@H](O)[C@@]12F [Triamcinolone, triamcinolone] | 24.3 min |  |  | 
7 |  | CO[C@@H]1[C@@H](O[C@@H]2O[C@H](C)[C@@H](O[C@H]3C[C@@](C)(O)[C@@H](OC(=O)CC(C)C)[C@H](C)O3)[C@H](N(C)C)[C@H]2O)[C@@H](CC=O)C[C@@H](C)[C@@H](O)/C=C/C=C/C[C@@H](C)OC(=O)C[C@H]1O [kitasamycin] |  |  |  | lower than that of polyvinylpyrrolidone

Row | SMILES | Wetting Contact Angle, Drug alone [3] | Average Dissolution Time, Drug alone [1] | dissolution characteristic curve type [2] | solubility of drug with increasing concentration of low molecular weight chitosan [2] | effect of chitosan on the dissolution rate of kitasamycin [4]
8 | COc1ccc2c(c1)c(CC(=O)O)c(C)n2C(=O)c1ccc(Cl)cc1 [Indomethacin, indomethacin] | 50 ° | 24.8 min |  |  | 
